{"source": "BindingDB's records for doi:10.1021/jm00040a004", "about": "(Glaxo Group Research, 1994)", "experiment": "In vitro kappa-opioid receptor agonist activity in isolated rabbit vas deferens assay", "data": [{"smiles": "O=C(Cc1ccc(Cl)c(Cl)c1)N1CCc2c(O)cccc2C1CN1CCC(O)C1", "note": "(stereo not given) [2-(3,4-Dichloro-phenyl)-1-[5-hydroxy-1-(3-hydroxy-pyrrolidin-1-ylmethyl)-3,4-dihydro-1H-isoquinolin-2-yl]-ethanone]", "values": [{"measurement": "IC50", "result": 3.8, "unit": "nM"}]}, {"smiles": "O=C1CCN(CC2c3ccoc3CCN2C(=O)Cc2ccc(Cl)c(Cl)c2)C1", "note": "(stereo not given) [1-{5-[2-(3,4-Dichloro-phenyl)-acetyl]-4,5,6,7-tetrahydro-furo[3,2-c]pyridin-4-ylmethyl}-pyrrolidin-3-one]", "values": [{"measurement": "IC50", "result": 6, "unit": "nM"}]}, {"smiles": "O=C(Cc1ccc(Cl)c(Cl)c1)N1CCc2c(O)cccc2C1CN1CCCC1", "note": "(stereo not given)", "values": [{"measurement": "IC50", "result": 0.11, "unit": "nM"}]}, {"smiles": "Cc1cc2c(o1)CCN(C(=O)Cc1ccc(Cl)c(Cl)c1)C2CN1CCC(O)C1", "note": "(stereo not given) [2-(3,4-Dichloro-phenyl)-1-[4-(3-hydroxy-pyrrolidin-1-ylmethyl)-2-methyl-6,7-dihydro-4H-furo[3,2-c]pyridin-5-yl]-ethanone]", "values": [{"measurement": "IC50", "result": 0.39, "unit": "nM"}]}, {"smiles": "O=C(Cc1ccc(Cl)c(Cl)c1)N1CCc2occc2C1CN1CC=CCC1", "note": "(stereo not given) [2-(3,4-Dichloro-phenyl)-1-[4-(3,6-dihydro-2H-pyridin-1-ylmethyl)-6,7-dihydro-4H-furo[3,2-c]pyridin-5-yl]-ethanone]", "values": [{"measurement": "IC50", "result": 1.4, "unit": "nM"}]}, {"smiles": "O=C(Cc1ccc(Cl)c(Cl)c1)N1CCc2occc2[C@H]1CN1CC[C@@H](O)C1", "note": "[(RS)-2-(3,4-Dichloro-phenyl)-1-[4-(3-hydroxy-pyrrolidin-1-ylmethyl)-6,7-dihydro-4H-furo[3,2-c]pyridin-5-yl]-ethanone(GR 91272)]", "values": [{"measurement": "IC50", "result": 3.4, "unit": "nM"}]}, {"smiles": "O=C(Cc1ccc(Cl)c(Cl)c1)N1CCc2occc2C1CN1CCCC1", "note": "(stereo not given) [2-(3,4-Dichloro-phenyl)-1-(4-pyrrolidin-1-ylmethyl-6,7-dihydro-4H-furo[3,2-c]pyridin-5-yl)-ethanone]", "values": [{"measurement": "IC50", "result": 15, "unit": "nM"}]}, {"smiles": "O=C(Cc1ccc(Cl)c(Cl)c1)N1CCc2occc2[C@@H]1CN1CC[C@H](O)C1", "note": "[2-(3,4-Dichloro-phenyl)-1-[(R)-4-((S)-3-hydroxy-pyrrolidin-1-ylmethyl)-6,7-dihydro-4H-furo[3,2-c]pyridin-5-yl]-ethanone]", "values": [{"measurement": "IC50", "result": 1.1, "unit": "nM"}]}, {"smiles": "O=C(Cc1ccc(Cl)c(Cl)c1)N1CCc2occc2C1CN1CCC(O)C1", "note": "(stereo not given) [2-(3,4-Dichloro-phenyl)-1-[4-(3-hydroxy-pyrrolidin-1-ylmethyl)-6,7-dihydro-4H-furo[3,2-c]pyridin-5-yl]-ethanone]", "values": [{"measurement": "IC50", "result": 2.7, "unit": "nM"}]}, {"smiles": "CN(C)CC1c2ccoc2CCN1C(=O)Cc1ccc(Cl)c(Cl)c1", "note": "(stereo not given) [2-(3,4-Dichloro-phenyl)-1-(4-dimethylaminomethyl-6,7-dihydro-4H-furo[3,2-c]pyridin-5-yl)-ethanone]", "values": [{"measurement": "IC50", "result": 22, "unit": "nM"}]}]}
